Measured values reported in patent publication US8546381B2, “Bridged heterocyclic compounds and methods of use” (Medivation Technologies, Inc., priority 2008, dated 2013).

Legend:
[1] = molecular target: T1, human recombinant dopamine D2L receptor (Homo sapiens, UniProt P14416); assay: Dopamine D2L radioligand binding ([3H]Spiperone); conditions: read-out: Dopamine (1 μM) D2L, inhibition of ligand binding
T1 construct: expressed in transfected cells; host or cells: CHO cells
Experimental: To evaluate in radioligand binding assays the activity of compounds of the invention, human recombinant dopamine D2L receptor expressed in Chinese hamster ovary (CHO) cells (Grandy, D. K. et al. Proc. Natl. Acad. Sci. USA. 86:9762, 1989; Hayes, G. et al., Mol. Endocrinol. 6:920, 1992) in a modified Tris-HCl buffer (50 mM Tris-HCl, pH 7.4, 1.4 mM Ascorbic Acid, 0.001% BSA, 150 mM NaCl) was used. Compounds of the invention were incubated with 0.16 nM [^3H]Spiperone for 120 minutes at 25° C. Non-specific binding was estimated in the presence of 10 μM Haloperidol. Receptor proteins were filtered and washed, the filters were then counted to determine [^3H]Spiperone specifically bound. Compounds were screened at 1 μM or lower, using 1% DMSO as vehicle. Biochemical assay results are presented as the percent inhibition of specific binding in Table 3.

[2] = molecular target: T2, human recombinant adrenergic α2B receptor (Homo sapiens, UniProt P18089); assay: Adrenergic α2B radioligand binding ([3H]Rauwolscine); conditions: 1 μM; read-out: Adrenergic α2B, inhibition of ligand binding (1 μM)
T2 construct: expressed in transfected cells; host or cells: CHO-K1 cells
T2 sequence (P18089 1-450): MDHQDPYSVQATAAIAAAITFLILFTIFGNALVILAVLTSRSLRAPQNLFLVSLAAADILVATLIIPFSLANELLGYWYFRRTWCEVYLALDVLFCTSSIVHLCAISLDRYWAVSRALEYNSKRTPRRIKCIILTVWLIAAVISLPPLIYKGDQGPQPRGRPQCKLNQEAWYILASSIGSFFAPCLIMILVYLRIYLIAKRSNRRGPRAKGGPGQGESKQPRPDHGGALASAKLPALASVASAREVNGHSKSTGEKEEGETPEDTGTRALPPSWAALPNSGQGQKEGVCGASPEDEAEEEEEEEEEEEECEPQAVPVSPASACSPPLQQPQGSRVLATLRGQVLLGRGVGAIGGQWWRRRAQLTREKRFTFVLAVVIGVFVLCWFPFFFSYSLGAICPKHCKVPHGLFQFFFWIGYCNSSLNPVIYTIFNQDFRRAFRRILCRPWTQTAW
Experimental: To evaluate in radioligand binding assays the activity of compounds of the invention, human recombinant adrenergic α2B receptor expressed in Chinese hamster ovary (CHO-K1) cells (Uhlen S et al. Eur J. Pharmacol. 343(1):93, 1998) in a modified Tris-HCl buffer (50 mM Tris-HCl, pH 7.4, 12.5 mM MgCl2, 1 mM EDTA, 0.2% BSA) was used. Compounds of the invention were incubated with 2.5 nM [^3H]Rauwolscine for 60 minutes at 25° C. Non-specific binding was estimated in the presence of 10 μM Prozosin. Receptor proteins were filtered and washed, the filters were then counted to determine [^3H]Rauwolscine specifically bound. Compounds were screened at 1 μM or lower, using 1% DMSO as vehicle. Biochemical assay results are presented as the percent inhibition of specific binding in Table 3.

[3] = molecular target: T3, human recombinant histamine H2 receptor (Homo sapiens, UniProt P25021); assay: Histamine H2 radioligand binding ([125I]Aminopotentidine); conditions: compound at 1 μM; inhibition of specific [125I]Aminopotentidine binding; read-out: Histamine Binding (1 μM) H2, Percentage Inhibition
T3 construct: expressed in transfected cells; host or cells: CHO-K1 cells
T3 sequence (P25021 whole entry): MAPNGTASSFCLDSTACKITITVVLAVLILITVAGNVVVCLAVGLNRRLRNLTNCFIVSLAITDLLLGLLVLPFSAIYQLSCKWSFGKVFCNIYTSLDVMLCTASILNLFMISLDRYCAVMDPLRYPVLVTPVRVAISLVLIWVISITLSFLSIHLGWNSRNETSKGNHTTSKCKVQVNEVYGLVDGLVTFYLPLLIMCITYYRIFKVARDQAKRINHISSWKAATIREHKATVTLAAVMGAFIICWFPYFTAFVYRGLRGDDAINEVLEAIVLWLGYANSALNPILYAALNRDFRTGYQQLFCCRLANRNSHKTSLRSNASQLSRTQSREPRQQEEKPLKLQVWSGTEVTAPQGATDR
Experimental: To evaluate in radioligand binding assays the activity of compounds of the invention, human recombinant histamine H2 receptor expressed in Chinese hamster ovary (CHO) K1 cells (Ruat, M., Proc. Natl. Acad. Sci. USA. 87(5):1658, 1990) in a 50 mM Phosphate buffer, pH 7.4 was used. Compounds of the invention were incubated with 0.1 nM [^125I]Aminopotentidine for 120 minutes at 25° C. Non-specific binding was estimated in the presence of 3 μM Tiotidine. Receptor proteins were filtered and washed, the filters were then counted to determine [^125I]Aminopotentidine specifically bound. Compounds were screened at 1 μM or lower, using 1% DMSO as vehicle. Biochemical assay results are presented as the percent inhibition of specific binding in Table 2.

[4] = molecular target: T4, human recombinant adrenergic α2A receptor (Homo sapiens, UniProt P08913); assay: Adrenergic α2A radioligand binding ([3H]MK-912); conditions: 1 μM; read-out: Adrenergic α2A, inhibition of ligand binding (1 μM)
T4 construct: expressed in transfected cells; host or cells: insect Sf9 cells
T4 sequence (P08913 1-465): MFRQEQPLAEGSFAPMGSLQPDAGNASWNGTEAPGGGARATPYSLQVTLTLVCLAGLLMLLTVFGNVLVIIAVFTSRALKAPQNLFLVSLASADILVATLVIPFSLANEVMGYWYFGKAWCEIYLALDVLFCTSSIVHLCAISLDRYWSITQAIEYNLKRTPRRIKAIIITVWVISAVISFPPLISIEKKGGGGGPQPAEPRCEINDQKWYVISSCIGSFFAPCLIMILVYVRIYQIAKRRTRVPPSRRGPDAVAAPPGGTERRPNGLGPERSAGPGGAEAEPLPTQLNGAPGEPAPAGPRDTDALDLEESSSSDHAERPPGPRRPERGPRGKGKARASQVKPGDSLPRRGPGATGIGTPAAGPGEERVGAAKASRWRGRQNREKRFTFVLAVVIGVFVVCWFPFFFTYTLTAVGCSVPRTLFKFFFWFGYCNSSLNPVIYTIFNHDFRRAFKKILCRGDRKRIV
Experimental: To evaluate in radioligand binding assays the activity of compounds of the invention, human recombinant adrenergic α2A receptor expressed in insect Sf9 cells (Uhlen S et al. J Pharmacol Exp Ther. 271:1558, 1994) in a modified Tris-HCl buffer (50 mM Tris-HCl, pH 7.4, 12.5 mM MgCl2, 2 mM EDTA) was used. Compounds of invention were incubated with 1 nM [^3H]MK-912 for 60 minutes at 25° C. MK912 is (2S-trans)-1,3,4,5′,6,6′,7,12b-octahydro-1′,3′-dimethyl-spiro[2H-benzofuro[2,3-a]quinolizine-2,4′(1′H) -pyrimidin]-2′(3′H)-one hydrochloride Non-specific binding was estimated in the presence of 10 μM WB-4101 (2-(2,6-Dimethoxyphenoxyethyl)aminomethyl-1,4-benzodioxane hydrochloride). Receptor proteins were filtered and washed, the filters were then counted to determine [^3H]MK-912 specifically bound. Compounds were screened at 1 μM or lower, using 1% DMSO as vehicle. Biochemical assay results are presented as the percent inhibition of specific binding in Table 3.

T1 sequence (P14416 whole entry): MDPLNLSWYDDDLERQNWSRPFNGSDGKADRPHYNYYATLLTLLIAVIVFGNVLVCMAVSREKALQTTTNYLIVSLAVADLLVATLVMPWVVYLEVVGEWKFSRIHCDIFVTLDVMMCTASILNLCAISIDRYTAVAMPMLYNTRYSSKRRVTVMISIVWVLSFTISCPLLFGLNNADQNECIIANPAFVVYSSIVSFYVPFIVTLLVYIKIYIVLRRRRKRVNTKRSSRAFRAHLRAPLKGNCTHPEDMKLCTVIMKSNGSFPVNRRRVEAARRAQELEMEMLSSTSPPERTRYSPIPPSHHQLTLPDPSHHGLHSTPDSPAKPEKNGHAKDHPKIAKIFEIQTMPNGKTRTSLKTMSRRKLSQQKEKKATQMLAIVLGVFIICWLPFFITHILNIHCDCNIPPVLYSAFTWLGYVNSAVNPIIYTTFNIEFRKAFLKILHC

SMILES | inhibition at 1 µM [1] | inhibition at 1 µM [2] | inhibition at 1 µM [3] | inhibition at 1 µM [4]
Cc1ccc(CCn2c3c(c4cc(Cl)ccc42)C2CCC(C3)N2C)cc1 (stereo not shown) [Compound 61] | 44% | 96% | 52% | 97%
Cc1ccc2c(c1)c1c(n2CCc2ccc(F)cc2)CC2CCC1N2C (stereo not shown) [Compound 62] | 41% | 104% | 52% | 96%
CCOC(=O)CCn1c2c(c3cc(Cl)ccc31)C1CCC(C2)N1C (stereo not shown) [Compound 70, ethyl 3-(2-chloro-11-methyl-5,6,7,8,9,10-hexahydro-7,10-iminocyclohept[b]indol-5-yl)propanoate] | -3% | 51% | 7% | 3%
CN1C2CCC1c1c(n(CCC(=O)O)c3ccc(Cl)cc13)C2 (stereo not shown) [Compound 72] | 3% | -8% | 7% | 6%
CN1C2CCC1c1c(n(CCC(N)=O)c3ccc(Cl)cc13)C2 (stereo not shown) [Compound 73] | -4% | 73% | -1% | 6%
CN1C2CCC1c1c(n(CCc3ccc(C(F)(F)F)nc3)c3cc(F)c(Cl)cc13)C2 (stereo not shown) [Compound 77] | 4% | 75% | 7% | 30%
Cc1ccc(CCn2c3c(c4cc(Cl)ccc42)C2CCC(C3)N2C)cn1 (stereo not shown) [Compound 79] | 9% | 87% | 1% | 14%
CN1C2CCC1c1c(n(CCc3cccnc3)c3ccc(Cl)cc13)C2 (stereo not shown) [Compound 80] | -3% | 95% | -3% | 21%
Cc1ccc2c(c1)c1c(n2CCc2cnc(C)nc2)CC2CCC1N2C (stereo not shown) [Compound 81] | 9% | 40% | -9% | -5%
Cc1ncc(CCn2c3c(c4cc(Cl)ccc42)C2CCC(C3)N2C)cn1 (stereo not shown) [Compound 82] | 2% | 47% | -8% | 5%
COc1ccc(CCn2c3c(c4cc(C)ccc42)C2CCC(C3)N2C)cc1 (stereo not shown) [Compound 83] | 12% | 94% | 15% | 77%
COc1ccc(CCn2c3c(c4cc(Cl)ccc42)C2CCC(C3)N2C)cc1 (stereo not shown) [Compound 84] | -6% | 98% | 63% | 76%
Cc1ccc2c(c1)c1c(n2CCCc2ccc(Cl)cc2)CC2CCC1N2C (stereo not shown) [Compound 85] | -2% | 92% | 81% | 73%
Cc1ccc2c(c1)c1c(n2CCc2cccnc2)CC2CCC1N2C (stereo not shown) [Compound 86] | 4% | 106% | 26% | 63%
CN1C2CCC1c1c(n(CCc3cncc(Cl)c3)c3ccc(Cl)cc13)C2 (stereo not shown) [Compound 87] | -6% | 98% | 7% | 21%
Cc1ccc2c(c1)c1c(n2CCc2cncc(Cl)c2)CC2CCC1N2C (stereo not shown) [Compound 88] | 4% | 104% | 5% | 32%
Cc1cncc(CCn2c3c(c4cc(Cl)ccc42)C2CCC(C3)N2C)c1 (stereo not shown) [Compound 89] | 9% | 76% | -1% | 5%
Cc1cncc(CCn2c3c(c4cc(C)ccc42)C2CCC(C3)N2C)c1 (stereo not shown) [Compound 90] | -4% | 75% | -1% | 26%
Cc1ccc2c(c1)c1c(n2CC(O)c2ccc(C)nc2)CC2CCC1N2C (stereo not shown) [Compound 91] | -5% | 67% | 9% | 29%
Cc1ccc(CCn2c3c(c4ccccc42)C2CCC(C3)N2C)cn1 (stereo not shown) [Compound 92] | 0% | 34% | 11% | 15%
Cc1ccc2c(c1)c1c(n2CC(=O)N2CCCCC2)CC2CCC1N2C (stereo not shown) [Compound 93] | -19% | -6% | -5% | 4%
CN1[C@@H]2CC[C@H]1c1c(n(CCc3ccc(F)cc3)c3ccc(F)cc13)C2 [Compound 94, (+)-(7S,10R)-2-Fluoro-5-(4-fluorophenethyl)-11-methyl-5,6,7,8,9,10-hexahydro-7,10-iminocyclohept[b]indole] | 14% | 102% | 4% | 56%
CN1[C@H]2CC[C@@H]1c1c(n(CCc3ccc(F)cc3)c3ccc(F)cc13)C2 [Compound 95, (−)-(7R,10S)-2-Fluoro-5-(4-fluorophenethyl)-11-methyl-5,6,7,8,9,10-hexahydro-7,10-iminocyclohept[b]indole] | 50% | 36% | 8% | 65%
CN1[C@@H]2CC[C@H]1c1c(n(CCc3ccc(C(F)(F)F)nc3)c3ccccc13)C2 [Compound 97] | -10% | 103% | 11% | 26%
CN1[C@@H]2CC[C@H]1c1c(n(CC(C)(O)c3ccc(F)cc3)c3ccccc13)C2 (stereo partly shown) [Compound 99] | -6% | 92% | 6% | 25%
